From patent publication US4652646A, “Thiazolo[3,2-a][1,2,3]triazolo[4,5-d]pyrimidine and [1,3,4]thiadiazolo[3,2-a][1,2,3]triazolo[4,5-d]pyrimidine derivatives” (Daiichi Seiyaku Co., Ltd., priority 1984, dated 1987)

What was measured:
[1] = system: passive cutaneous anaphylaxis (PCA) reaction; experiment: Passive cutaneous anaphylaxis (PCA) test; assay type: in vivo, Sprague-Dowley male rats; details: 0.5 h; rat PCA; 20 mg/kg in 0.5% CMC, oral, 30 minutes before antigen challenge
Procedure: (§1) 1 mg of egg albumin dissolved in 0.2 ml of saline was intramuscularly administered to each of Sprague-Dawley male rats weighing 300 to 350 g (Charles River Japan Inc.), and then 1 ml of a suspension of sterilized Bordetella pertussis (2×10^10 cells) in saline was administered intraperitoneally to the rats. After 14 days, blood was drawn from the rats to obtain an antiserum.
In this test, the antiserum described in Test Example 1 was used after it was diluted with saline so as to provide a blue spot having a diameter of about 10 mm in the following control group.
Sprague-Dowley male rats weighing about 180 g (5 rats per group) were sensitized by injecting 0.05 ml of the diluted antiserum into the shaved dorsal skin. 48 hours later, the animals were challenged with 1 ml of saline containing 5 mg of egg albumin and 5 mg of Evans blue dye administered via a tail vein. 30 minutes later, the rats were sacrificed by decapitation. The dorsal skin was removed, and the long and short axis of the each wheal was measured.
In this test, the test compound was administered as follows. 20 mg of a test compound was suspended in a 0.5% CMC aqueous solution, and the suspension was administered to each of the rats in an amount of 20 mg/kg 30 minutes before the antigen challenge. For a control group, only a 0.5% CMC solution was administered.
The inhibitory activity on the PCA reaction in the treated group was calculated by the following formula: [formula] wherein: a represents a mean value of blue spot area in the control group.
b represents a mean value of blue spot area in the treated group.

[2] = Acute oral toxicity (LD50) in rats; details: rat, in vivo, oral administration
[3] = system: release of SRS-A induced by passive peritoneal anaphylaxis (PPA) reaction; experiment: Passive Peritoneal Anaphylaxis (PPA) test: inhibition of SRS-A release; assay type: in vivo, Sprague-Dawley male rats; details: ip, 5 min; rat PPA; 1 mg/kg intraperitoneally 30 seconds before egg albumin
Procedure: as §1
(§2) The test was conducted according to the method of Orange et al [Orange, R. P., Stechschulte, D. J., Austen, K. F., J. Immunol., 105, pp1087-1095 (1970)]. Sprague-Dawley male rats weighing 250 to 400 g (5 rats per group) were passively sensitized by administering 5 ml of 5-fold dilution antiserum (prepared by diluting the above antiserum with saline). 2 hours later, 5 ml of an egg albumin solution prepared by dissolving 2 mg of egg albumin in phosphate buffered saline containing 0.9 mM of calcium chloride was administered intraperitoneally to the rats. After 5 minutes, the rats were sacrificed by decapitation, and peritoneal fluid was pooled and centrifuged at 300×G at 4° C. for 10 minutes. Then, amounts of SRS-A and histamine in the supernatant were determined.
The quantitative determination of SRS-A was carried out according to the method of Stechschulte et al [Stechschulte, D. J., Auste, K. F., Bloch, K. J., J. Exp. Med., 125, pp127-147 (1967)] using a guinea pig ileum specimen in the presence of mepyramine and atropine. The amount of SRS-A was expressed in terms of unit, i.e., one unit of SRS-A activity was defined as the concentration required to produce a contraction of guinea pig ileum equal in amplitude to that produced by 5 ng of histamine, and the total released amount of SRS-A per rat (unit/rat) was calculated.
(§3) In this test, the test compound of this invention was administered as follows. 2 mg of a test compound was dissolved in 10 ml of phosphate buffered saline containing 0.9 mM of calcium chloride, an equimolar amount of sodium hydroxide to test compound, 2% of dimethyl sulfoxide and 2% of ethanol, and the solution was administered intraperitoneally to the rats at a dose of 1 mg/kg 30 seconds before the injection of egg albumin for inducing PPA. For a control group, the same solution without test compound and sodium hydroxide was administered.
(§4) The inhibitory activity on release of histamine and SRS-A by the PPA reaction in the treated group was calculated by the following formula: [formula] wherein: a represents a mean value of released amount in the control group.
(§5) b represents a mean value of released amount in the treated group.
(§6) c represents a mean value of spontaneously released amount.

[4] = system: release of histamine induced by passive peritoneal anaphylaxis (PPA) reaction; experiment: Passive Peritoneal Anaphylaxis (PPA) test: inhibition of histamine release; assay type: in vivo, Sprague-Dawley male rats; details: ip, 5 min; rat PPA; 1 mg/kg intraperitoneally 30 seconds before egg albumin
Procedure: as §1, §2
The quantitative determination of histamine was carried out according to the method of Shore et al [Shore, P. A., Bunkhalter, A. H., Cohn, V. H., J. Pharmacol. Exp. Ther., 127, pp182-186 (1959)], and the total released amount of histamine per rat (μg/rat) was calculated.
as §3, §4, §5, §6

Structure (SMILES) | inhibition in vivo at 20 mg/kg [1] [%] | LD50 [2] [mg/kg] | inhibition in vivo at 1 mg/kg [3] [%] | inhibition in vivo at 1 mg/kg [4] [%]
CC(C)(C)c1ccc(-c2nn3c(=O)c4[nH]nnc4nc3s2)cc1 [Example 1, 6-(4-tert-Butylphenyl)-[1,3,4]thiadiazolo[3,2-a][1,2,3]triazolo[4,5-d]pyrimidin-9(1H)-one] | 46 | > 2000 | 64 | 83
CC(C)c1ccc(-c2nn3c(=O)c4[nH]nnc4nc3s2)cc1 [Example 2] |  |  | 52 | 85
COc1ccc(-c2nn3c(=O)c4[nH]nnc4nc3s2)cc1 [Example 3] |  |  | 42 | 93
CC(C)(C)c1ccc(-c2cn3c(=O)c4[nH]nnc4nc3s2)cc1 [Example 6] | 36 |  |  | 
O=c1c2[nH]nnc2nc2sc(-c3ccc(C4CCCCC4)cc3)cn12 [Example 7] | 40 |  |  | 
O=c1c2[nH]nnc2nc2sc(-c3ccccc3)cn12 [Example 8] |  |  | 37 | 83
O=c1c2[nH]nnc2nc2sc(CCc3ccccc3)nn12 [Example 9, 6-(2-Phenylethyl)-[1,3,4]thiadiazolo[3,2-a][1,2,3]triazolo[4,5-d]pyrimidin-9(1H)-one] | 52 | > 2000 | 50 | 80
COc1cccc(-c2nn3c(=O)c4[nH]nnc4nc3s2)c1OC [Example 11] | 32 |  | 66 | 89
O=c1c2[nH]nnc2nc2sc(-c3ccc4c(c3)OCO4)nn12 [Example 12] | 36 |  | 52 | 87
O=c1c2[nH]nnc2nc2sc(-c3cccc(F)c3)nn12 [Example 13] | 34 |  |  | 
O=c1c2[nH]nnc2nc2sc(-c3ccco3)nn12 [Example 17] | 50 | > 2000 | 55 | 82
Cc1ccc(-c2nn3c(=O)c4[nH]nnc4nc3s2)o1 [Example 18] |  | > 2000 |  | 
CC(C)(C)c1ccc(-c2nn3c(=O)c4[nH]nnc4nc3s2)o1 [Example 20] |  | > 2000 |  | 
O=c1c2[nH]nnc2nc2sc(-c3ccc(Cl)o3)nn12 [Example 21] | 35 | > 2000 |  | 
O=c1c2[nH]nnc2nc2sc(-c3cccs3)nn12 [Example 23] | 31 | > 2000 | 51 | 84
O=c1c2[nH]nnc2nc2sc(-c3ccsc3)nn12 [Example 24] | 45 |  |  | 
CCc1ccc(-c2nn3c(=O)c4[nH]nnc4nc3s2)s1 [Example 27] |  |  | 63 | 81
CC(C)(C)c1ccc(-c2nn3c(=O)c4[nH]nnc4nc3s2)s1 [Example 28] | 34 |  |  | 
CC(C)(C)c1cc(-c2nn3c(=O)c4[nH]nnc4nc3s2)cs1 [Example 29] | 39 |  |  | 
CCc1sc(-c2nn3c(=O)c4[nH]nnc4nc3s2)cc1C [Example 31] | 32 |  |  | 
O=c1c2[nH]nnc2nc2sc(-c3ccc(Cl)s3)nn12 [Example 32] | 35 |  | 63 | 87
O=c1c2[nH]nnc2nc2sc(-c3cc4c(s3)CCC4)nn12 [Example 33] | 47 |  | 70 | 82
O=c1c2[nH]nnc2nc2sc(-c3cc4c(s3)CCCC4)nn12 [Example 35] | 45 |  | 45 | 88
CC1CCc2sc(-c3nn4c(=O)c5[nH]nnc5nc4s3)cc2C1 (centres unmarked) [Example 36] | 40 |  | 41 | 83

Structure (SMILES) | inhibition in vivo at 20 mg/kg [1] [%] | LD50 [2] [mg/kg] | inhibition in vivo at 1 mg/kg [3] [%] | inhibition in vivo at 1 mg/kg [4] [%]
O=c1c2[nH]nnc2nc2sc(C3COc4ccccc4C3)nn12 (centres unmarked) [Example 39] | 38 |  |  | 
O=c1c2[nH]nnc2nc2sc(C3COc4ccccc4O3)nn12 (centres unmarked) [Example 41] |  |  | 62 | 91
O=c1c2[nH]nnc2nc2sc(Cc3ccccc3)nn12 [Example 42] | 48 | > 2000 | 54 | 99
CC(C)(C)c1ccc(Cc2nn3c(=O)c4[nH]nnc4nc3s2)cc1 [Example 43] |  |  | 59 | 75
COc1ccc(Cc2nn3c(=O)c4[nH]nnc4nc3s2)cc1 [Example 44] |  |  | 70 | 81
O=c1c2[nH]nnc2nc2sc(Cc3ccc(F)cc3)nn12 [Example 45] | 57 |  |  | 
O=c1c2[nH]nnc2nc2sc(-c3ccccc3)nn12 [Example 47] | 38 | > 2000 |  | 
Cc1ccccc1CCc1nn2c(=O)c3[nH]nnc3nc2s1 [Example 48] |  | > 2000 |  | 
Cc1cccc(CCc2nn3c(=O)c4[nH]nnc4nc3s2)c1 [Example 49] |  | > 2000 |  | 
Cc1ccc(CCc2nn3c(=O)c4[nH]nnc4nc3s2)cc1 [Example 50] |  | > 2000 |  | 
O=c1c2[nH]nnc2nc2sc(CCc3ccc(F)cc3)nn12 [Example 53] |  | > 2000 |  | 
O=c1c2[nH]nnc2nc2sc(CCc3cccc(Cl)c3)nn12 [Example 54] |  | > 2000 |  | 
O=c1c2[nH]nnc2nc2sc(CCc3ccc(Cl)cc3)nn12 [Example 55] |  | > 2000 |  | 
O=c1c2[nH]nnc2nc2sc(CC(c3ccccc3)c3ccccc3)nn12 [Example 57] |  |  | 61 | 86
O=c1c2[nH]nnc2nc2sc(C=Cc3ccccc3)nn12 [Example 62] |  |  | 55 | 94
O=c1c2[nH]nnc2nc2sc(COc3ccccc3)nn12 [Example 64] | 33 |  |  | 
O=c1c2[nH]nnc2nc2sc(COc3ccc(F)cc3)nn12 [Example 66] |  |  | 47 | 89
CC(C)(C)c1ccc(OCCc2nn3c(=O)c4[nH]nnc4nc3s2)cc1 [Example 69] | 34 |  |  | 
COc1ccc(-c2cn3c(=O)c4[nH]nnc4nc3s2)cc1Cl [Example 73] | 48 |  |  | 
O=c1c2[nH]nnc2nc2sc(-c3cccs3)cn12 [Example 75] | 32 |  |  | 
Cc1ccc(-c2nn3c(=O)c4[nH]nnc4nc3s2)cc1 [Example 80, 6-(4-Methylphenyl)-[1,3,4]thiadiazolo[3,2-a][1,2,3]triazolo[4,5-d]pyrimidin-9(1H)-one monohydrate] | 31 |  | 42 | 91
CC(C)(C)c1cccc(-c2nn3c(=O)c4[nH]nnc4nc3s2)c1 [Example 82] |  |  | 52 | 82
O=c1c2[nH]nnc2nc2sc(-c3ccc4c(c3)CCCC4)nn12 [Example 83] | 44 |  |  | 
